Experimental data as given in ChEMBL document CHEMBL1681776, “A photoreactive probe that differentiates the binding sites of noncompetitive GABA receptor antagonists” (Bioorg Med Chem Lett, 2011).
pIC50: −log10 of the molar value. Calls of active or inactive are those of the source. No cut-off for these calls is given here.

Key:
Rattus norvegicus [1] = species: Rattus norvegicus; test: Displacement of [3H]EBOB from GABA receptor in 365 nm ultraviolet light irradiated Wistar rat brain P2 membrane by photoaffinity labeling experiment
Rattus norvegicus [2] = species: Rattus norvegicus; test: (§1) Displacement of [3H]EBOB from Wistar rat brain membrane GABA receptor by liquid scintillation counting
[3] = as §1
Rattus norvegicus [4] = species: Rattus norvegicus; test: Displacement of [3H]EBOB from GABA receptor in Wistar rat brain P2 membrane in presence of fipronil measured after membrane washout; format: cell membranes
Rattus norvegicus [5] = species: Rattus norvegicus; test: Displacement of [3H]EBOB from GABA receptor in 365 nm ultraviolet light irradiated Wistar rat brain P2 membrane by photoaffinity labeling experiment in presence of picrotoxinin measured after membrane washout
Musca domestica = test: (§2) Displacement of [3H]EBOB from housefly head membrane GABA receptor by liquid scintillation counting
[6] = as §2; design: species or system Musca domestica

| SMILES | Activity (Rattus norvegicus [1]) | Activity (Rattus norvegicus [2]) | pIC50 [3] | Activity (Rattus norvegicus [4]) | Activity (Rattus norvegicus [5]) | Activity (Musca domestica) | pIC50 [6] |
| --- | --- | --- | --- | --- | --- | --- | --- |
| COC(=O)CCC#Cc1ccc(C(=O)Oc2ccc(C3(C(F)(F)F)N=N3)cc2[N+](=O)[O-])cc1 | Active | Dose-dependent effect | 5.83 | Active | inactive | Dose-dependent effect | 6.62 |
| CC(C)(C)CCOC(=O)c1ccc(C#CCCC(=O)O)cc1 |  |  | 7.06 |  |  |  | 5.47 |
